Reference: patent publication US20170022171A1, “2,5-DISUBSTITUTED CYCLOPENTANECARBOXYLIC ACIDS AND THEIR USE” (Bayer Pharma Aktiengesellschaft, priority 2014, published 2017)
pIC50: −log10 of the molar value.

Legend:
Format in all cases: biochemical
[1] = target: T1, mouse MMP-2 (Mus musculus, UniProt P33434); experiment: In vitro mouse MMP-2 inhibition test
T1 construct: purchased R&D Systems 924-MP
Description: (§1) The MMP-mediated amidolytic cleavage of a suitable peptide substrate leads to an increase in fluorescent light here too. The signal intensity of the fluorescent light is directly proportional to the enzyme activity. The active concentration of a test compound at which half the enzyme is inhibited (50% signal intensity of the fluorescent light) is reported as the IC50 value.
(§2) Recombinant mouse MMP-2 (from R&D Systems, 924-MP) is chemically activated in accordance with the manufacturer's instructions using APMA. 1 μl of the test compound to be analysed (as a solution in DMSO, suitable concentrations, for example, 1 nM to 30 μM) is pipetted into 24 μl of activated enzyme (final concentration, for example, 0.1 nM) in reaction buffer (50 mM Tris/HCl pH 7.5, 10 mM CaCl2, 150 mM NaCl, 0.05% Brij®-35) in a white 384-hole microtiter plate (MTP). The enzymatic reaction is started by adding the intramolecularly quenched Mca-Pro-Leu-Gly-Leu-Dpa(Dnp)-Ala-Arg-NH2 substrate (final concentration, for example, 10 μM; R&D Systems, ES-001), so as to result in a total test volume of 50 The course of the MMP-2 reaction is measured by measuring the fluorescence intensity (excitation 320 nm, emission 410 nm) over a suitable period of time (for example over 120 min at a temperature of 32° C.).

[2] = target: T2, mouse MMP-3 (Mus musculus, UniProt P28862); experiment: In vitro mouse MMP-3 inhibition test
T2 construct: purchased R&D Systems 548-MP
T2 sequence (P28862 100-477): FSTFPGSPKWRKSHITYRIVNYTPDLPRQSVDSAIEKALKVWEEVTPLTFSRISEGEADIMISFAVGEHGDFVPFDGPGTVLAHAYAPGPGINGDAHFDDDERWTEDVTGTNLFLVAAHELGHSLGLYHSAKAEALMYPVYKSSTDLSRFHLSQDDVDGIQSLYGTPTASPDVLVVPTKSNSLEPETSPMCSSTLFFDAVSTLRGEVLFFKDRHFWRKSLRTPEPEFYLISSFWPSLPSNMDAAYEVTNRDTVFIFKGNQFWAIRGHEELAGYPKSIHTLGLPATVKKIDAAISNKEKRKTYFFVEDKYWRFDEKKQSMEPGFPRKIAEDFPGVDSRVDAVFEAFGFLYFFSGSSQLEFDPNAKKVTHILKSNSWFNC
Description: as §1
(§3) Recombinant mouse MMP-3 (from R&D Systems, 548-MP) is chemically activated in accordance with the manufacturer's instructions using APMA. 1 μl of the test compound to be analysed (as a solution in DMSO, suitable concentrations, for example, 1 nM to 30 μM) is pipetted into 24 μl of activated enzyme (final concentration, for example, 0.5 nM) in reaction buffer (50 mM Tris/HCl pH 7.5, 10 mM CaCl2, 150 mM NaCl, 0.05% Brij®-35) in a white 384-hole microtiter plate (MTP). The enzymatic reaction is started by adding the intramolecularly quenched Mca-Arg-Pro-Lys-Pro-Val-Glu-Nval-Trp-Arg-Lys(Dnp)-NH2 substrate (final concentration, for example, 5 μM; R&D Systems, ES-002), so as to result in a total test volume of 50 μl. The course of the MMP-3 reaction is measured by measuring the fluorescence intensity (excitation 320 nm, emission 410 nm) over a suitable period of time (for example over 120 min at a temperature of 32° C.).

[3] = target: T3, mouse MMP-7 (Mus musculus, UniProt Q10738); experiment: In vitro mouse MMP-7 inhibition test
T3 construct: purchased R&D Systems 2967-MP
T3 sequence (Q10738 95-264): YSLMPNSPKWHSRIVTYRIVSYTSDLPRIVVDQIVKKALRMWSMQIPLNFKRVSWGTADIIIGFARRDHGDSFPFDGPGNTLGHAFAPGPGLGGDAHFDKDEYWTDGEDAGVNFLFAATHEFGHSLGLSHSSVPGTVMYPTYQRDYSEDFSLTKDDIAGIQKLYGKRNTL
Description: as §1
as §3, with “MMP-7” for “MMP-3”, “2967-MP)” for “548-MP)”, “Mca-Lys-Pro-Leu-Gly-Leu-Dpa(Dnp)-Ala-Arg-NH2” for “Mca-Arg-Pro-Lys-Pro-Val-Glu-Nval-Trp-Arg-Lys(Dnp)-NH2”, “ES-010),” for “ES-002),”

[4] = target: T4, mouse MMP-8 (Mus musculus, UniProt O70138); experiment: In vitro mouse MMP-8 inhibition test
T4 construct: purchased R&D Systems 2904-MP
T4 sequence (O70138 101-465): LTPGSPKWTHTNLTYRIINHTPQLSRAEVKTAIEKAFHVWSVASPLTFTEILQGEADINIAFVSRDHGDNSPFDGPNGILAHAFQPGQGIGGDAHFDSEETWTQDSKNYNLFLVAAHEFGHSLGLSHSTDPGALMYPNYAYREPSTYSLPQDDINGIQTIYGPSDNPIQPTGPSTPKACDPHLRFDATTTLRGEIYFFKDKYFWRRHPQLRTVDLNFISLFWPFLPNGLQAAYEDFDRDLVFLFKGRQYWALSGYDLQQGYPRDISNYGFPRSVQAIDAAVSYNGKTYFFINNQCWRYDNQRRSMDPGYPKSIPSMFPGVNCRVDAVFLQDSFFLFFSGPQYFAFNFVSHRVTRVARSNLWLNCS
Description: as §1
as §3, with “MMP-8” for “MMP-3”, “2904-MP)” for “548-MP)”, “2” for “0.5”, “Mca-Lys-Pro-Leu-Gly-Leu-Dpa(Dnp)-Ala-Arg-NH2” for “Mca-Arg-Pro-Lys-Pro-Val-Glu-Nval-Trp-Arg-Lys(Dnp)-NH2”, “ES-010),” for “ES-002),”

[5] = target: T5, mouse MMP-9 (Mus musculus, UniProt P41245); experiment: In vitro mouse MMP-9 inhibition test
T5 construct: purchased R&D Systems 909-MP
T5 sequence (P41245 108-730): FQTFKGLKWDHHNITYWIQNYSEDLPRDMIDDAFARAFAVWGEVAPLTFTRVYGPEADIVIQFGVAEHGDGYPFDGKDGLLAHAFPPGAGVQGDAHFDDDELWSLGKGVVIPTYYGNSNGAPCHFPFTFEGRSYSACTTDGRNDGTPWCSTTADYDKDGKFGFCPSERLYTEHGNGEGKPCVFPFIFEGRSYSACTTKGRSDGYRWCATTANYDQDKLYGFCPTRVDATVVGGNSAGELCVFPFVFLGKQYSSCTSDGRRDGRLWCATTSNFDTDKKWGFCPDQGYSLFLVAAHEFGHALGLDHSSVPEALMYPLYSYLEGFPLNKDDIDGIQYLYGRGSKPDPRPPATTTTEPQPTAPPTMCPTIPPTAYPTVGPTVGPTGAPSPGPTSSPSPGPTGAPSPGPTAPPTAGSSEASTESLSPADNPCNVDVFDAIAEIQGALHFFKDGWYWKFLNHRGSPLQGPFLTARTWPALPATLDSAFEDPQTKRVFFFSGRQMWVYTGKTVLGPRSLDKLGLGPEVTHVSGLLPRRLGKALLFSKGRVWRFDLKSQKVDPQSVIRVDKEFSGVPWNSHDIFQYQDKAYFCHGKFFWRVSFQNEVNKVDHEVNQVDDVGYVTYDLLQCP
Description: as §1
as §2, with “mouse MMP-9” for “mouse MMP-2”, “Systems, 909-MP)” for “Systems, 924-MP)”, “example, 5” for “example, 10”, “the MMP-9” for “the MMP-2”

T1 sequence (P33434 110-662): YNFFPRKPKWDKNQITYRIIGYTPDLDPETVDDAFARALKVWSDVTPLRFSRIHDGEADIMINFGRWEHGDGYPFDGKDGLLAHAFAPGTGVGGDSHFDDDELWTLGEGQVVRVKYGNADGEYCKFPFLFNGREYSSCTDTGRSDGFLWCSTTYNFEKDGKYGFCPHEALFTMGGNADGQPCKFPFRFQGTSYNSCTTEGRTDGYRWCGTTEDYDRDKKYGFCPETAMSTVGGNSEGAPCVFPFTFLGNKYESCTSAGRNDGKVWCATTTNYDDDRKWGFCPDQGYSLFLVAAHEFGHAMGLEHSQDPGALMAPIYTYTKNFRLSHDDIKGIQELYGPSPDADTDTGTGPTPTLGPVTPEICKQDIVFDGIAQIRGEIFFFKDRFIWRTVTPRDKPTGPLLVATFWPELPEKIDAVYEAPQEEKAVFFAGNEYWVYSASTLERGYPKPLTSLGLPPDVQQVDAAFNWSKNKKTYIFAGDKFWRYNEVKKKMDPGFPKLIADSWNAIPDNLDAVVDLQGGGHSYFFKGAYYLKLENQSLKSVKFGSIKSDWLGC

Row | Compound | pIC50 [1] | pIC50 [2] | pIC50 [3] | pIC50 [4] | pIC50 [5]
1 | O=C(O)[C@H]1[C@H](Cn2nnc3ccccc3c2=O)CC[C@@H]1C(=O)c1ccc(OCc2ccc(F)cc2)cc1 (racemic) [Example 1, (+/−)-(1RS,2RS,5SR)-2-{4-[(4-Fluorobenzyl)oxy]benzoyl}-5-[(4-oxo-1,2,3-benzotriazin-3(4H)-yl)methyl]cyclopentanecarboxylic acid] | 7.85 | 6.80 | 7.34 | 7.74 | 7.51
2 | O=C(O)[C@H]1[C@H](Cn2nnc3ccccc3c2=O)CC[C@@H]1C(=O)c1ccc(OCc2cccc(Cl)c2)cc1 (racemic) [Example 2, (+/−)-(1RS,2RS,5SR)-2-{4-[(3-Chlorobenzyl)oxy]benzoyl}-5-[(4-oxo-1,2,3-benzotriazin-3(4H)-yl)methyl]cyclopentanecarboxylic acid] | 6.40 | 5.89 | 6.85 | 5.85 | 5.96
3 | O=C(O)[C@H]1[C@H](Cn2nnc3ccccc3c2=O)CC[C@@H]1C(=O)c1ccc(OCc2ccc(Cl)c(Cl)c2)cc1 (racemic) [Example 3, (+/−)-(1RS,2RS,5SR)-2-{4-[(3,4-Dichlorobenzyl)oxy]benzoyl}-5-[(4-oxo-1,2,3-benzotriazin-3(4H)-yl)methyl]cyclopentanecarboxylic acid] | 6.54 | 5.72 | 6.37 | 6.09 | 5.59
4 | O=C(O)[C@H]1[C@H](Cn2nnc3ccccc3c2=O)CC[C@@H]1C(=O)c1ccc(OCC2CCCC2)cc1 (racemic) [Example 4, (+/−)-(1RS,2RS,5SR)-2-[4-(Cyclopentylmethoxy)benzoyl]-5-[(4-oxo-1,2,3-benzotriazin-3(4H)-yl)methyl]cyclopentanecarboxylic acid] | 7.00 | 5.89 | 6.80 | 7.38 | 7.21
5 | O=C(O)[C@H]1[C@H](Cn2nnc3ccccc3c2=O)CC[C@@H]1C(=O)c1ccc(OCCC2CCCCC2)cc1 (racemic) [Example 5, (+/−)-(1RS,2RS,5SR)-2-[4-(2-Cyclohexylethoxy)benzoyl]-5-[(4-oxo-1,2,3-benzotriazin-3(4H)-yl)methyl]cyclopentanecarboxylic acid] | 6.57 | 5.89 | 6.80 | 6.44 | 6.03
6 | O=C(O)[C@H]1[C@H](Cn2nnc3ccc(C(F)(F)F)cc3c2=O)CC[C@@H]1C(=O)c1ccc(OCc2ccccc2)cc1 (racemic) [Example 11, (+/−)-(1RS,2RS,5SR)-2-[4-(Benzyloxy)benzoyl]-5-{[4-oxo-6-(trifluoromethyl)-1,2,3-benzotriazin-3(4H)-yl]methyl}cyclopentanecarboxylic acid] | 6.60 | 6.23 | 7.64 | 7.74 | 7.21
7 | O=C(O)[C@H]1[C@H](Cn2nnc3ccc(C(F)(F)F)cc3c2=O)CC[C@@H]1C(=O)c1ccc(OCCCc2ccccc2)cc1 (racemic) [Example 39, (+/−)-(1RS,2SR,5RS)-2-{[4-Oxo-6-(trifluoromethyl)-1,2,3-benzotriazin-3(4H)-yl]methyl}-5-[4-(3-phenylpropoxy)benzoyl]cyclopentanecarboxylic acid] | 5.42 | 5.02 | 6.64 | 6.19 | < 4.40
8 | O=C(O)[C@H]1[C@H](Cn2nnc3ccc(C(F)(F)F)cc3c2=O)CC[C@@H]1C(=O)c1ccc(OCC2CCCCC2)cc1 (racemic) [Example 40, (+/−)-(1RS,2RS,5SR)-2-[4-(Cyclohexylmethoxy)benzoyl]-5-{[4-oxo-6-(trifluoromethyl)-1,2,3-benzotriazin-3(4H)-yl]methyl}cyclopentanecarboxylic acid] | 6.24 | 6.74 | 6.66 | 7.60 | 6.19
9 | O=C(O)[C@H]1[C@H](Cn2nnc3ccc(C(F)(F)F)cc3c2=O)CC[C@@H]1C(=O)c1ccc(OCCCC2CCCCC2)cc1 (racemic) [Example 56, (+/−)-(1RS,2RS,5SR)-2-{4-(3-Cyclohexylpropoxy)benzoyl}-5-{[4-oxo-6-(trifluoromethyl)-1,2,3-benzotriazin-3(4H)-yl]methyl}cyclopentanecarboxylic acid] | 5.30 | < 4.40 | 6.00 | 5.96 | < 4.40
10 | O=C(O)[C@H]1[C@H](Cn2nnc3ccc(C(F)(F)F)cc3c2=O)CC[C@@H]1C(=O)c1ccc(SCc2ccc(Cl)c(Cl)c2)cc1 (racemic) [Example 79, (+/−)-(1RS,2RS,5SR)-2-{4-[(3,4-Dichlorobenzyl)sulphanyl]benzoyl}-5-{[4-oxo-6-(trifluoromethyl)-1,2,3-benzotriazin-3(4H)-yl]methyl}cyclopentanecarboxylic acid] | 5.23 | 5.03 | 5.96 | 6.12 | 5.68
11 | Cc1ccc2nnn(C[C@@H]3CC[C@H](C(=O)c4ccc(OCc5ccccc5)cc4)[C@H]3C(=O)O)c(=O)c2c1 (racemic) [Example 91, (+/−)-(1RS,2RS,5SR)-2-[4-(Benzyloxy)benzoyl]-5-[(6-methyl-4-oxo-1,2,3-benzotriazin-3(4H)-yl)methyl]cyclopentanecarboxylic acid] | 7.02 | 6.40 | 7.66 | 7.59 | 7.14
